Test results published in PMC5120204, “Identification of an orally active small-molecule PTHR1 agonist for the treatment of hypoparathyroidism” (Nature Communications, 2016).
pEC50: −log10 of the molar value.

Key:
Type in all cases: cell-based
hPTHR1-delNT = target: T1, hPTHR1-delNT (Homo sapiens, UniProt Q03431); assay: cAMP production assay in COS-7 cells expressing hPTHR1-delNT; details: COS-7 cells transfected with hPTHR1-delNT
T1 construct: HA + tetraglycine linker (YPYDVPDYA-GGGG); expressed in transfected cells; host or cells: COS-7 (transient)
T1 sequence (Q03431 with tags, fused parts or gaps): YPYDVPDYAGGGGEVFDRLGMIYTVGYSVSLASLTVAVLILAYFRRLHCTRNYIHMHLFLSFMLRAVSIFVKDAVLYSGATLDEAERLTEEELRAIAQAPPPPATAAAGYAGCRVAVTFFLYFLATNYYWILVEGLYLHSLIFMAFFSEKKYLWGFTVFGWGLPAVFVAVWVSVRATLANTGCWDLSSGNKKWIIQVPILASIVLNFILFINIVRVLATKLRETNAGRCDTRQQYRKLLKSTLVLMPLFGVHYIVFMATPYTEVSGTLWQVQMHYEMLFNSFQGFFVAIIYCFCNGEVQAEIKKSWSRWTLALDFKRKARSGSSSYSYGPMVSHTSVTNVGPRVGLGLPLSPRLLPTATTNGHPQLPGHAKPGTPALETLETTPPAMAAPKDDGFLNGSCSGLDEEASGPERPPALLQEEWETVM

hPTHR2 = target: T2, hPTHR2 (Homo sapiens, UniProt P49190); assay: cAMP production assay in COS-7 cells expressing hPTHR2; details: COS-7 cells expressing human PTHR2
T2 construct: expressed in transfected cells; host or cells: COS-7 (transient)
Experimental: COS-7 cells (ATCC) were seeded into a 96-well flat-bottomed plate (1.4 × 10^4 cells per 100 μl per well) and incubated overnight. The next day, the COS-7 cells were transfected by adding 10 μl of a mixture of hPTHR1, hPTHR2 or mutant hPTHR1 plasmid, rat PTHR1 or rat PTHR2 plasmid, or empty vector (0.1 μg per well), FuGENE HD Transfection Reagent (0.4 μl per well, Promega), and Opti-MEM I Reduced Serum Medium (10 μl per well, Life Technologies) to each well. […] The plate was placed in a 37 °C constant-temperature water bath for 20 min to allow the reaction to proceed. After incubation, the liquid in the wells was discarded, the wells were washed with the assay medium (100 μl per well), and the plate was frozen on dry ice. Next, 40 μl of 50 mmol l^−1 HCl was added to each well, and the plate was stored in a freezer set at ≤−20 °C. The cAMP concentrations were measured by using a cAMP EIA kit (GE Healthcare). EC50 values were determined from three independent experiments in duplicate by a non-linear regression Emax model (JMP ver.9.0.2, SAS Institute). The geometric mean of the EC50 values obtained in three experiments in duplicate was calculated using Microsoft Office Excel 2007. […]

PTHR1 = target: T3, PTHR1 (Rattus norvegicus, UniProt P25961); assay: cAMP washout assay in UMR-106 cells; details: washout 0–120 min
T3 construct: UMR-106 cells, which natively express rat PTHR1; endogenous in cells; host or cells: UMR-106 (ATCC)
T3 sequence (P25961 27-591): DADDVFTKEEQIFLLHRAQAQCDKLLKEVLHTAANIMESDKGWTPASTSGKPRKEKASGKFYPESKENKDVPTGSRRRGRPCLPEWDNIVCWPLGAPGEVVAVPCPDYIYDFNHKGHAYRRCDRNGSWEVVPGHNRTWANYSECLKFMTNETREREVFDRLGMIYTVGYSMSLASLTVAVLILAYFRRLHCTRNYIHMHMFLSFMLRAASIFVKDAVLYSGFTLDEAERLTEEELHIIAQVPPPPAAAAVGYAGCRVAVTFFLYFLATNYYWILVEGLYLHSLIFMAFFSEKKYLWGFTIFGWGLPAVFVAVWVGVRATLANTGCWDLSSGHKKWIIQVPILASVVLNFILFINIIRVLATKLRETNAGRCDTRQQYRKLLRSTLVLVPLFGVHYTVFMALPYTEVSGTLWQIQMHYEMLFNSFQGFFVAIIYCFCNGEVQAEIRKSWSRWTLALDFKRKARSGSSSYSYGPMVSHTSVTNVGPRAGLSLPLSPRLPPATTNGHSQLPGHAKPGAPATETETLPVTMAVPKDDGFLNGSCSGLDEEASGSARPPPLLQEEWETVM
Experimental: The duration of cAMP signalling capacity of PCO371, hPTH(1–34) and LA-PTH (synthesized at American Peptide Company, Inc.) was assessed in a time-course experiment in UMR-106 cells (cAMP washout assay). The cells were treated with assay medium (2 mg m l^−1 BSA, and 2 mmol l^−1 HEPES/McCoy's 5A medium, Life Technologies) alone (basal) or with ligands (1 μmol l^−1 for hPTH(1–34), 0.1 μmol l^−1 for LA-PTH and 0.1 mmol l^−1 for PCO371) in the assay medium for 10 min, washed (t=0), incubated for 0, 30, 60 and 120 min (washout phase), and then further incubated for 5 min in the assay medium containing IBMX (2 mmol l^−1). Incubations were terminated with 50 mmol l^−1 HCl. The cAMP concentrations were determined using a cAMP EIA kit (GE Healthcare).

fetal rat long bones = assay: Fetal rat long bone cultures, 45Ca release; details: organ culture
Experimental: Bone-resorbing activity was assessed by fetal rat long bone cultures. ^45CaCl2 (1,480 kBq, PerkinElmer) was subcutaneously injected into a pregnant Crl:CD(SD) rat (Charles River Laboratories) on its 18th day of gestation. At 48 h after the injection, the pregnant rat was euthanized, and the ulnae and radial bones were isolated from euthanized fetal rats. The long bones were placed on nylon mesh and covered with paraffin paper, and a floating culture in BGJb medium (Life Technologies) containing antibiotic–antimycotic (× 1, Life Technologies) was carried out for 3 days at 37 °C in 95% air and 5% CO2 atmosphere. On the 4th day, the medium was replaced with fresh BGJb medium containing hPTH(1–34) (1 nmol l^−1 to 1 μmol l^−1) or PCO371 (0.1 nmol l^−1 to 3 μmol l^−1) or vehicle (0.1% DMSO and 0.1 mmol l^−1 acetic acid at final concentration) and cultured for a further 4 days at 37 °C. Bone samples were then treated with 10% TCA (500 μl/bone) overnight at 37 °C. Radioactivity of the bone and the medium samples was measured. Four to five long bones were used for each individual dose. ^45Ca release (%) was calculated by the following formula (equation (4)): […]

T2 sequence (P49190 25-550): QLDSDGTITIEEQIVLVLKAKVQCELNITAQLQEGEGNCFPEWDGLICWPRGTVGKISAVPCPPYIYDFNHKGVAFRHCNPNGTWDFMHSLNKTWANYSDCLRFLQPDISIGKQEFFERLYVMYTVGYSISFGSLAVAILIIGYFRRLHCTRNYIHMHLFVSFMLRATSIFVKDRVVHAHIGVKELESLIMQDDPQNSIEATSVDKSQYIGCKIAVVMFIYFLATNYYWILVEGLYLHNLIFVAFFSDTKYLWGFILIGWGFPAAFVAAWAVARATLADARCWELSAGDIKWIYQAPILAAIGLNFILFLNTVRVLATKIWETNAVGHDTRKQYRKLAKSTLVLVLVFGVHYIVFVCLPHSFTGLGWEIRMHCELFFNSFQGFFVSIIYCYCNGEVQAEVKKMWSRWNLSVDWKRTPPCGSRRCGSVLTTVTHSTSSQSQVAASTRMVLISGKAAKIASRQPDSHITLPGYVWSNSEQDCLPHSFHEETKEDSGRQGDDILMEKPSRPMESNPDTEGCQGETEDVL

With Cc1cc(N2C(=O)NC(=O)C2(C)C)cc(C)c1CCS(=O)(=O)N1CCC2(CC1)N=C(c1ccc(OC(F)(F)F)cc1)NC2=O [PCO371, 1-{3,5-dimethyl-4-[2-({4-oxo-2-[4-(trifluoromethoxy)phenyl]-1,3,8-triazaspiro[4.5]dec-1-en-8-yl}sulfonyl)ethyl]phenyl}-5,5-dimethylimidazolidine-2,4-dione] the pEC50 (hPTHR1-delNT) was 5.60, the cAMP production (hPTHR2) was “did not stimulate cAMP production” and the “duration of cAMP-signalling response” value (PTHR1) was “much shorter than that of hPTH(1–34)”. The “concentration able to stimulate 45Ca release from prelabeled bones” value (fetal rat long bones) was no less than 1 µmol/L.
